Source: the NIST ThermoML archive (doi:10.1021/je5004912)

Assay: excess molar enthalpy (molar enthalpy of mixing); xn = mol fraction of the nth substance listed
Details: 101 kPa, Liquid, Flow calorimetry

CC(C)CC(C)(C)C [2,2,4-trimethylpentane] + CCCO
excess molar enthalpy [kcal/mol]
Details | 298.15 K | 313.15 K
x1 = 0.05 | 0.0208 | 0.0282
x1 = 0.1 | – | 0.0543
x1 = 0.1001 | 0.0399 | –
x1 = 0.1504 | – | 0.0784
x1 = 0.1505 | 0.0576 | –
x1 = 0.2002 | – | 0.1
x1 = 0.2003 | 0.0736 | –
x1 = 0.25 | – | 0.12
x1 = 0.2501 | 0.0882 | –
x1 = 0.2997 | – | 0.139
x1 = 0.2999 | 0.102 | –
x1 = 0.3498 | – | 0.156
x1 = 0.3499 | 0.114 | –
x1 = 0.4004 | – | 0.172
x1 = 0.4006 | 0.126 | –
x1 = 0.4502 | – | 0.185
x1 = 0.4503 | 0.136 | –
x1 = 0.4995 | – | 0.195
x1 = 0.4997 | 0.144 | –
x1 = 0.5503 | – | 0.203
x1 = 0.5504 | 0.151 | –
x1 = 0.5997 | – | 0.209
x1 = 0.5998 | 0.155 | –
x1 = 0.6498 | – | 0.211
x1 = 0.65 | 0.157 | –
x1 = 0.7007 | – | 0.211
x1 = 0.7008 | 0.157 | –
x1 = 0.7501 | – | 0.206
x1 = 0.7502 | 0.153 | –
x1 = 0.7993 | – | 0.197
x1 = 0.7994 | 0.146 | –
x1 = 0.8499 | 0.135 | 0.184
x1 = 0.8998 | 0.12 | 0.163
x1 = 0.9506 | 0.0937 | 0.124

CCCCCCC [heptane] + CCCO
excess molar enthalpy [kcal/mol]
Details | 298.15 K | 313.15 K
x1 = 0.0503 | 0.0229 | 0.0292
x1 = 0.1001 | – | 0.0564
x1 = 0.1002 | 0.0435 | –
x1 = 0.15 | – | 0.081
x1 = 0.1501 | 0.0619 | –
x1 = 0.2 | – | 0.103
x1 = 0.2001 | 0.0786 | –
x1 = 0.2498 | – | 0.124
x1 = 0.2499 | 0.0935 | –
x1 = 0.3004 | 0.107 | 0.142
x1 = 0.3503 | – | 0.159
x1 = 0.3505 | 0.119 | –
x1 = 0.4003 | – | 0.174
x1 = 0.4005 | 0.13 | –
x1 = 0.4498 | – | 0.186
x1 = 0.4501 | 0.139 | –
x1 = 0.4996 | – | 0.196
x1 = 0.4997 | 0.147 | –
x1 = 0.5503 | – | 0.203
x1 = 0.5505 | 0.153 | –
x1 = 0.5995 | – | 0.208
x1 = 0.5996 | 0.157 | –
x1 = 0.6505 | – | 0.211
x1 = 0.6506 | 0.158 | –
x1 = 0.7004 | – | 0.209
x1 = 0.7005 | 0.157 | –
x1 = 0.7503 | – | 0.204
x1 = 0.7504 | 0.153 | –
x1 = 0.8 | – | 0.195
x1 = 0.8001 | 0.145 | –
x1 = 0.8492 | – | 0.18
x1 = 0.8493 | 0.134 | –
x1 = 0.8993 | 0.118 | 0.16
x1 = 0.9503 | 0.0913 | 0.123

C=CCCCC [hex-1-ene] + CCCO
excess molar enthalpy [kcal/mol]
Details | 298.15 K | 313.15 K
x1 = 0.0501 | 0.0146 | 0.022
x1 = 0.1002 | – | 0.0445
x1 = 0.1003 | 0.0301 | –
x1 = 0.1501 | 0.0459 | 0.0667
x1 = 0.2001 | – | 0.0884
x1 = 0.2002 | 0.0612 | –
x1 = 0.2499 | – | 0.109
x1 = 0.2501 | 0.0762 | –
x1 = 0.3003 | – | 0.13
x1 = 0.3004 | 0.0913 | –
x1 = 0.3499 | – | 0.148
x1 = 0.3501 | 0.106 | –
x1 = 0.4006 | – | 0.166
x1 = 0.4007 | 0.119 | –
x1 = 0.4499 | – | 0.181
x1 = 0.4501 | 0.132 | –
x1 = 0.4998 | – | 0.195
x1 = 0.5001 | 0.142 | –
x1 = 0.5502 | – | 0.206
x1 = 0.5504 | 0.152 | –
x1 = 0.5996 | – | 0.214
x1 = 0.5998 | 0.159 | –
x1 = 0.6503 | – | 0.218
x1 = 0.6505 | 0.163 | –
x1 = 0.6996 | – | 0.22
x1 = 0.6998 | 0.165 | –
x1 = 0.75 | 0.163 | 0.217
x1 = 0.7998 | – | 0.209
x1 = 0.7999 | 0.158 | –
x1 = 0.8505 | 0.147 | 0.195
x1 = 0.9004 | 0.131 | 0.172
x1 = 0.9508 | 0.102 | 0.131
